These results are taken from US20260174860A1, “HYBRID COMPOUNDS OF SCLAREOL AND DOXORUBICIN, THEIR SYNTHESIS AND APPLICATION” (INSTITUTE FOR BIOLOGICAL RESEARCH "SINISA STANKOVIC" - …, priority 2023, published 2026).

For series [1], the system named is U87 human glioblastoma cell line. Put plainly: MTT test of cell viability, 72 h treatment. In kind it is cell-based. Particulars: for IC50: MTT, 72 h; for Selectivity Index: ratio IC50 MRC-5 (4,000 cells per well) / IC50 U87. The method, then: (§1) The MTT test was used to evaluate the effect of the compounds on cell viability. The test relies on the reduction of tetrazolium salt (MTT) to formazan, which is catalyzed by the mitochondrial enzyme succinate dehydrogenase. The activity of succinate dehydrogenase, which is indicative of mitochondrial respiration, is taken as an indirect measure of the metabolic activity of the cell, and thus its viability. The MTT-formazan produced is a purple-colored product, whose absorbance is measured at a wavelength of 570 nm. • a) To determine the inhibition of cell growth by SC, different cell lines were exposed to increasing concentrations of SC (5, 10, 25, 50, and 100 μM). The cells were seeded in 96-well microtiter plates at a density of 2,000 cells per well for NCI-H460, NCI-H460/R, DLD1 and DLD1-TxR, and 4,000 cells per well for MRC-5, U87, U87-TxR, and U251 in 100 μL of the appropriate medium. Control cells that received no treatment were also seeded at the same time. After 24 h for adaptation, the cells were treated with various concentrations of SC. After 72 h of treatment, 0.2 mg/ml MTT was added to each well in the appropriate cell culture medium. After 4 h of incubation at 37° C. with 5% CO2, the medium was removed, and 100 μL of DMSO were added to each well, to dissolve the formazan. The absorbance of the samples was measured at 570 nm using a Multiskan Sky Microplate spectrophotometer (ThermoFisher Scientific, USA). The results were analyzed using GraphPad Prism 8.0.2. software, and the IC50 values were determined by non-linear regression. • b) To test the interaction between SC and DOX in terms of cytotoxicity in different cell lines, cells were seeded in 96-well microtiter plates at a density of 2,000 cells per well for NCI-H460, NCI-H460/R, DLD1 and DLD1-TxR, and 4,000 cells per well for MRC-5, U87, U87-TxR, and U251 in 100 μl of the appropriate medium. SC (10 and 20 μM) was combined with increasing concentrations of DOX (20, 50, 100, 200, and 500 nM). The cells were treated with the simultaneous combinations for 72 h. After this period, 0.2 mg/ml MTT was added to each well, followed by 4 hours of incubation at 37° C. with 5% CO2. The medium was then removed, and DMSO was added to each well to dissolve the formazan.
(§2) The analysis was carried out using GraphPad Prism software version 8.0.2 to determine the nature of the interaction, namely synergistic, antagonistic, or additive, between compounds. This was done using the computer software CalcuSyn, which is based on the combination index method. The method takes into account the concentration of compounds, the individual effect of each compound, as well as the effect of two compounds in combination. The values of the combination indices (CI) describe the nature of the interaction: Cl<0.9 indicates synergism, Cl>1.1 indicates antagonism, and Cl=0.9-1.1 indicates an additive effect. • c) To compare the resistance and selectivity profiles among SC, DOX, CON1, and CON2, human glioblastoma cell lines U87, U87-TxR, and MRC-5 were seeded at a density of 4,000 cells per well in 100 μL of the appropriate medium. In contrast, NCI-H460, NCI-H460/R, and MRC-5 were seeded at a density of 2,000 cells per well in 100 μL of the proper medium. The effect of SC derivatives LIG1 and LIG2 was also examined. The range of concentrations differed among the cell lines and the compounds. For LIG1 and LIG2, the range of concentrations for all cell lines was 50, 100, 200, 300, and 400 μM, while the same range was used for the MRC-5 in the case of SC, CON1, and CON2. DOX concentrations ranged 0.1, 0.25, 0.5, 1, and 2.5 μM for U87 and NCI-H460, and 0.25, 0.5, 1, 2.5, and 5 μM for U87-TxR, NCI-H460/R, and MRC-5. […] concentrations used for SC, CON1, and CON2 treatments varied in the range 1, 2.5, 5, 10, 25, 50, and 100 μM. The treatment lasted 72 h. After the treatment period, 0.2 mg/ml MTT in the appropriate cell culture medium was added to each well. […]
A general note: Tetrazolium assays rely on reduction of a dye to a coloured formazan, in cell work by metabolically active cells.

The subject of series [2] is NCI-H460 human non-small cell lung carcinoma cell line. Put plainly: MTT test of cell viability, 72 h treatment. Conditions: for IC50: MTT, 72 h; for Selectivity Index: ratio IC50 MRC-5 (2,000 cells per well) / IC50 NCI-H460. In kind it is cell-based. The method, then: as §1, §2
Series [3] has as its system U87-TxR resistant human glioblastoma cell line. Put plainly: MTT test of cell viability, 72 h treatment. The series is classed as cell-based. Conditions: for IC50: MTT, 72 h, MDR line; for Relative Resistance: ratio IC50 U87-TxR / IC50 U87. Here is the method:
as §1
(§3) The absorbance of the samples was measured at 570 nm using a Multiskan Sky Microplate spectrophotometer.
as §2, with “h.” for “h. After the treatment period, 0.2 mg/ml MTT in the appropriate cell culture medium was added to each well.”

The subject of series [4] is NCI-H460/R resistant human non-small cell lung carcinoma cell line. The series can be described thus: MTT test of cell viability, 72 h treatment. In kind it is cell-based. Particulars: for IC50: MTT, 72 h, MDR line; for Relative Resistance: ratio IC50 NCI-H460/R / IC50 NCI-H460. Here is the method: as §1, §3
as §2, with “h.” for “h. After the treatment period, 0.2 mg/ml MTT in the appropriate cell culture medium was added to each well.”

Series [5] has as its system MRC-5 human lung fibroblast cell line. Put plainly: MTT test of cell viability, 72 h treatment. In kind it is cell-based. The method, then: as §1, §3
as §2, with “h.” for “h. After the treatment period, 0.2 mg/ml MTT in the appropriate cell culture medium was added to each well.”

A short description of series [6]: Zetasizer measurement of size, polydispersity and zeta potential. In kind it is physicochemical. Particulars: 25° C., diluted 100 times with ultrapure water, mean of three. The method, then: The Malvern Zetasizer Nano ZS (Malvern Instruments, United Kingdom) was used to analyze the physico-chemical stability characteristics of conjugates. The measurement range was from 0.6 nm up to […]. The mean size of conjugates, the polydispersity index (PDI) and zeta potential were measured. All measurements were taken at a temperature of 25° C. and each sample was diluted 100 times with ultrapure water. The measurements were repeated three times, and the results were presented as the mean value. PDI is a parameter used to define the size range of particles. The term “polydispersity” (or “dispersity” as recommended by IUPAC) describes the degree of non-uniformity of a size distribution of particles. Zeta potential represents the surface charge of nanoparticles and indicates their long-term stability.

[7] abbreviates: Homo sapiens, MRC5, 72 h, 2,000 cells per well (non-small cell carcinoma experiments).
The mark [8] stands for this setting: Homo sapiens, MRC5, 72 h, 4,000 cells per well (glioblastoma experiments).

The term IC50 denotes the concentration that inhibits the measured activity by half. For `CC1(C)CCC[C@]2(C)[C@@H](CC[C@@](C)(O)/C=C/c3ccc(CNCCCNC(=O)CCC(=O)O)cc3)[C@](C)(O)CC[C@@H]12` [LIG1, 4-((3-((4-((R,E)-3-hydroxy-5-((1R,2R,4aS,8aS)-2-hydroxy-2,5,5,8a-tetramethyldecahydronaphthalen-1-yl)-3-methylpent-1-en-1-yl)benzyl)amino)propyl)amino)-4-oxobutanoic acid], the IC50 in series [1] (Homo sapiens) was found to be 74.4 µM; in series [2] (Homo sapiens, NCI-H460), 41.7 µM; in series [3] (Homo sapiens, U87-TxR) it was 61.7 µM; in series [4] (Homo sapiens, NCI-H460), 55.2 µM; in series [5] (setting [7]), 393 µM; in series [5] (setting [8]) it was 236 µM. The “Selectivity Index” value stood at 3.2 in series [1] and 9.4 in series [2]. The “Relative Resistance” value stood at 0.8 in series [3] and 1.3 in series [4].

Regarding `CC1(C)CCC[C@]2(C)[C@@H](CC[C@@](C)(O)/C=C/c3ccc(CNCCCCCCNC(=O)CCC(=O)O)cc3)[C@](C)(O)CC[C@@H]12` [LIG2, 4-((6-((4-((R,E)-3-hydroxy-5-((1R,2R,4aS,8aS)-2-hydroxy-2,5,5,8a-tetramethyldecahydronaphthalen-1-yl)-3-methylpent-1-en-1-yl)benzyl)amino)hexyl)amino)-4-oxobutanoic acid], the IC50 is 345 µM in series [1] (Homo sapiens); 99.6 µM in series [2] (Homo sapiens, NCI-H460); 273 µM in series [3] (Homo sapiens, U87-TxR); 110 µM in series [4] (Homo sapiens, NCI-H460); 610 µM in series [5] (setting [7]); above 400 µM in series [5] (setting [8]). The “Selectivity Index” value in series [1] is on record as above 1.2; in series [2] it was 6.1. In addition, the “Relative Resistance” value in series [3] worked out at 0.8; in series [4] it was 1.1.

Take “N1-((2S,3S,4S,6R)-3-hydroxy-2-methyl-6-(((1S,3S)-3,5,12-trihydroxy-3-(2-hydroxyacetyl)-10-methoxy-6,11-dioxo-1,2,3,4,6,11-hexahydrotetracen-1-yl)oxy)tetrahydro-2H-pyran-4-yl)-N4-(6-((4-((R,E)-3-hydroxy-5-((1R,2R,4aS,8aS)-2-hydroxy-2,5,5,8a-tetramethyldecahydronaphthalen-1-yl)-3-methylpent-1-en-1-yl)benzyl)amino)hexyl) succinamide [CON2]”: the IC50 was 6.2 µM in series [1]; 25.1 µM in series [2]; 26.2 µM in series [3]; 83.3 µM in series [4]; 131 µM in series [5] (2,000 cells per well (non-small cell carcinoma experiments)); above 400 µM in series [5] (4,000 cells per well (glioblastoma experiments)). Moreover, the figures for the “Selectivity Index” value in series [1] and in series [2] were above 64.5 and 5.2, respectively. The molecule further gave a Z-Average in series [6] of 180 ± 14.7 nm·days. Also, the “Relative Resistance” value in series [3] is 4.2; in series [4] it was 3.3.
